Experimental findings from US9828339B2, “Biphenyl derivatives and methods for preparing same” (DONG-A ST CO., LTD, priority 2013, dated 2017) are described below.

For the assay, the target named is human muscarinic M3 receptor (Homo sapiens (Human), UniProt P20309). In words: Binding assay on human muscarinic M3 receptor ([3H]-methyl scopolamine displacement). The following applies: membranes overexpressing human M3 receptor, Ki from IC50 by Cheng-Prusoff, read-out: Binding Affinity to M3 Receptor, Ki. The method, then:
[Experimental Example 1] Binding Assay on Human Muscarinic M3 Receptor
Cell membrane proteins (Perkin Elmer) wherein human muscarinic M3 receptor was overexpressed, [^3H]-methyl scopolamine and test compounds in various concentration were cultured in 0.2 ml of Tris-HCl buffer at 25° C. for 120 minutes. The same was filtered under suction through glass fiber filter (Whatman GF/B), and then the filter was washed 5 times with 1 ml of Tris-HCl buffer. The radioactivity of [^3H]-methyl scopolamine adsorbed on the filter was measured by a liquid scintillation counter. Non-specific binding was evaluated under existence of 5 μM of atropine. Affinity of the compound of the present invention to muscarinic M3 receptor was calculated as the dissociation constant (Ki), which can be calculated from concentration (IC50) of test compounds inhibiting 50% of binding of [^3H]-methyl scopolamine (i.e. labeled ligand) according to Cheng and Prusoff [Cheng and Prusoff, Biochem. Pharmacol., 22, 3099, 1973].

Chain of human muscarinic M3 receptor (P20309 whole entry): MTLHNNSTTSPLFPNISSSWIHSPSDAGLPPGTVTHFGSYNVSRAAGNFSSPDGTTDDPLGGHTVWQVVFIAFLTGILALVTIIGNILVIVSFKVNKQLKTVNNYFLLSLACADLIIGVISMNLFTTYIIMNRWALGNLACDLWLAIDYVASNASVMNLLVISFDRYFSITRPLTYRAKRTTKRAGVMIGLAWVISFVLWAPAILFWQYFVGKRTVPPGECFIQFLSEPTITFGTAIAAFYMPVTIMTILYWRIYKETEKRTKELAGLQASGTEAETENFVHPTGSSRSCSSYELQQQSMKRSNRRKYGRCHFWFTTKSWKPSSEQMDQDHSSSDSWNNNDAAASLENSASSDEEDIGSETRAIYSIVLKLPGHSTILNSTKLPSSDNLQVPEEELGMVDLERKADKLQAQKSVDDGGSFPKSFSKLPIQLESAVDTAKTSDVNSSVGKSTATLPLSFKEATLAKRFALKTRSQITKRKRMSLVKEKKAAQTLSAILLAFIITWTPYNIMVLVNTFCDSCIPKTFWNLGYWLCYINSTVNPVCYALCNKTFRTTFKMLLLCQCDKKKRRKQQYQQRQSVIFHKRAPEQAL

Usually Ki stands for the dissociation constant of the complex between target and ligand, obtained from inhibition or displacement. In the case of `COc1ccc(NC(=O)OCCC2CCCN2C)c(-c2cccc(F)c2)c1` (centres unmarked) [Example 61, 2-(1-methylpyrrolidin-2-yl)ethyl(3′-fluoro-5-methoxy-[1,1′-biphenyl]-2-yl)carbamate], the inhibition constant (Ki) was determined as 218 nM.

As for `COc1ccc(NC(=O)OCCC2CCCN2C)c(-c2cc(F)cc(F)c2)c1` (centres unmarked) [Example 62, 2-(1-Methylpyrrolidin-2-yl)ethyl(3′,5′-difluoro-5-methoxy-[1,1′-biphenyl]-2-yl)carbamate], the Ki is above 1000 nM.

On to `COc1ccc(NC(=O)OCCC2CCCN2C)c(-c2cccc(Cl)c2)c1` (centres unmarked) [Example 63, 2-(1-methylpyrrolidin-2-yl)ethyl(3′-chloro-5-methoxy-[1,1′-biphenyl]-2-yl)carbamate], for which the Ki is 58.1 nM.

Regarding `COc1ccc(NC(=O)OCCC2CCCN2C)c(-c2cc(Cl)cc(Cl)c2)c1` (centres unmarked) [Example 64, 2-(1-Methylpyrrolidin-2-yl)ethyl(3′,5′-dichloro-5-methoxy-[1,1′-biphenyl]-2-yl)carbamate], the Ki was above 1000 nM.

On to `COc1ccc(NC(=O)OCCC2CCCN2C)c(-c2ccc(F)c(Cl)c2)c1` (centres unmarked) [Example 65, 2-(1-Methylpyrrolidin-2-yl)ethyl (3′-chloro-4′-fluoro-5-methoxy-[1,1′-biphenyl]-2-yl)carbamate], for which the inhibition constant Ki is 71.3 nM.

In the case of `CN1CCCC1CCOC(=O)Nc1ccc(Cl)cc1-c1cc(F)cc(F)c1` (centres unmarked) [Example 69, 2-(1-Methylpyrrolidin-2-yl)ethyl(5-chloro-3′,5′-difluoro-[1,1′-biphenyl]-2-yl)carbamate], the inhibitory constant (Ki) is 109 nM.

Consider `CN1CCCC1CCOC(=O)Nc1ccc(Cl)cc1-c1cc(Cl)cc(Cl)c1` (centres unmarked) [Example 71, 2-(1-Methylpyrrolidin-2-yl)ethyl (3′,5,5′-trichloro-[1,1′-biphenyl]-2-yl)carbamate], for which the inhibition constant (Ki) worked out at 134 nM.

On to `CN1CCCC1CCOC(=O)Nc1ccc(Cl)cc1-c1cc(F)cc(Cl)c1` (centres unmarked) [Example 72, 2-(1-Methylpyrrolidin-2-yl)ethyl (3′,5-dichloro-5′-fluoro-[1,1′-biphenyl]-2-yl)carbamate], for which the Ki is 58.8 nM.

For the molecule `CN1CC[C@@H](COC(=O)Nc2ccccc2-c2ccc(C=O)c(F)c2)C1` [Example 74, (R)-(1-methylpyrrolidin-3-yl)methyl (3′-fluoro-4′-formyl-[1,1′-biphenyl]-2-yl)carbamate], the inhibitory constant (Ki) is above 1000 nM.

In the case of `CN1CCCC1CCOC(=O)Nc1ccc(O)cc1-c1cc(F)cc(F)c1` (centres unmarked) [Example 75, 2-(1-methylpyrrolidin-2-yl)ethyl (3′,5′-difluoro-5-hydroxy-[1,1′-biphenyl]-2-yl)carbamate], the Ki is 471 nM.

`CN1CCCC1CCOC(=O)Nc1ccc(O)cc1-c1cc(Cl)cc(Cl)c1` (centres unmarked) [Example 76, 2-(1-methylpyrrolidin-2-yl)ethyl (3′,5′-dichloro-5-hydroxy-[1,1′-biphenyl]-2-yl)carbamate]: the Ki was above 1000 nM.

In the case of `O=C(Nc1ccccc1-c1cc(F)cc(F)c1)OC[C@@H]1CCNC1` [Example 80, (R)-pyrrolidin-3-ylmethyl-(3′,5′-difluoro-[1,1′-biphenyl]-2-yl)carbamate], the Ki came to 27.4 nM.

Regarding `O=C(Nc1ccccc1-c1cc(F)cc(F)c1)OC[C@H]1CCNC1` [Example 81, (S)-pyrrolidin-3-ylmethyl-(3′,5′-difluoro-[1,1′-biphenyl]-2-yl)carbamate], the inhibition constant Ki amounted to 30.4 nM.

As for `O=C(Nc1ccc(F)cc1-c1ccccc1)OC[C@H]1CCNC1` [Example 82, (S)-pyrrolidin-3-ylmethyl-(5-fluoro-[1,1′-biphenyl]-2-yl)carbamate], the inhibition constant (Ki) was 18.9 nM.

Consider `Cc1cccc(-c2cc(F)ccc2NC(=O)OC[C@H]2CCNC2)c1` [Example 83, (S)-pyrrolidin-3-ylmethyl (5-fluoro-3′-methyl-[1,1′-biphenyl]-2-yl)carbamate], for which the Ki was determined as 18.3 nM.

Regarding `O=C(Nc1ccc(F)cc1-c1cc(F)cc(F)c1)OC[C@@H]1CCNC1` [Example 84, (R)-pyrrolidin-3-ylmethyl (3′,5,5′-trifluoro-[1,1′-biphenyl]-2-yl)carbamate], the Ki worked out at 34.9 nM.

On to `Cc1ccc(NC(=O)OC[C@@H]2CCNC2)c(-c2ccccc2)c1` [Example 86, (R)-pyrrolidin-3-ylmethyl (5-methyl-[1,1′-biphenyl]-2-yl)carbamate], for which the Ki was found to be 111 nM.

Take `Cc1ccc(NC(=O)OC[C@@H]2CCNC2)c(-c2cccc(F)c2)c1` [Example 87, (R)-pyrrolidin-3-ylmethyl (3′-fluoro-5-methyl-[1,1′-biphenyl]-2-yl)carbamate]: the Ki is 94.4 nM.

In the case of `CN1CC[C@H](COC(=O)Nc2ccccc2-c2cc(F)cc(F)c2)C1` [Example 92, (S)-(1-methylpyrrolidin-3-yl)methyl (3′,5′-difluoro-[1,1′-biphenyl]-2-yl)carbamate], the Ki is 10.7 nM.

For `Cc1cccc(-c2cc(F)ccc2NC(=O)OC[C@H]2CCN(C)C2)c1` [Example 94, (S)-(1-methylpyrrolidin-3-yl)methyl (5-fluoro-3′-methyl-[1,1′-biphenyl]-2-yl)carbamate], the Ki came out at 6.18 nM.

Consider `CN1CC[C@H](COC(=O)Nc2ccc(F)cc2-c2cc(F)cc(F)c2)C1` [Example 96, (S)-(1-methylpyrrolidin-3-yl)methyl (3′,5,5′-trifluoro-[1,1′-biphenyl]-2-yl)carbamate], for which the inhibition constant (Ki) is 17.6 nM.

As for `Cc1ccc(NC(=O)OC[C@@H]2CCN(C)C2)c(-c2ccccc2)c1` [Example 97, (R)-(1-methylpyrrolidin-3-yl)methyl (5-methyl-[1,1′-biphenyl]-2-yl)carbamate], the Ki was found to be 35.2 nM.

`Cc1ccc(NC(=O)OC[C@@H]2CCN(C)C2)c(-c2cccc(F)c2)c1` [Example 98, (R)-(1-methylpyrrolidin-3-yl)methyl (3′-fluoro-5-methyl-[1,1′-biphenyl]-2-yl)carbamate]: the Ki came out at 46.2 nM.

Turning to `CCN1CC[C@@H](COC(=O)Nc2ccccc2-c2ccccc2)C1` [Example 102, (R)-(1-ethylpyrrolidin-3-yl)methyl [1,1′-biphenyl]-2-ylcarbamate], the Ki worked out at 12.9 nM.

For the molecule `CCN1CC[C@H](COC(=O)Nc2ccccc2-c2ccccc2)C1` [Example 103, (S)-(1-ethylpyrrolidin-3-yl)methyl [1,1′-biphenyl]-2-ylcarbamate], the inhibitory constant (Ki) worked out at 13 nM.

With `CCN1CC[C@@H](COC(=O)Nc2ccccc2-c2cccc(C)c2)C1` [Example 104, (R)-(1-ethylpyrrolidin-3-yl)methyl (3′-methyl-[1,1′-biphenyl]-2-yl)carbamate], the inhibitory constant (Ki) stood at 14.2 nM.

`CCN1CC[C@H](COC(=O)Nc2ccccc2-c2cccc(C)c2)C1` [Example 105, (S)-(1-ethylpyrrolidin-3-yl)methyl (3′-methyl-[1,1′-biphenyl]-2-yl)carbamate]: the Ki is 19.6 nM.

As to `CC(C)CN1CCC[C@H]1COC(=O)Nc1ccccc1-c1ccccc1` [Example 107, (S)-(1-isobutylpyrrolidin-2-yl)-methyl [1,1′-biphenyl]-2-ylcarbamate], the Ki was determined as 752 nM.

Consider `Cc1cccc(-c2ccccc2NC(=O)OC[C@H]2CCCN2C)c1` [Example 110, (R)-(1-methylpyrrolidin-2-yl)-methyl (3′-methyl-[1,1′-biphenyl]-2-yl)carbamate], for which the Ki was found to be 9.13 nM.

Regarding `Cc1cccc(-c2cc(F)ccc2NC(=O)OC[C@H]2CCCN2C)c1` [Example 111, (R)-(1-methylpyrrolidin-2-yl)-methyl (5-fluoro-3′-methyl-[1,1′-biphenyl]-2-yl)carbamate], the inhibition constant (Ki) is 10.8 nM.

Consider `CN1CC[C@@H](COC(=O)Nc2ccccc2-c2cccc(F)c2)C1` [Example 113, (R)-(1-methylpyrrolidin-3-yl)-methyl (3′-fluoro-[1,1′-biphenyl]-2-yl)carbamate], for which the Ki is 1.92 nM.

`CN1CC[C@H](COC(=O)Nc2ccccc2-c2cc(Cl)cc(Cl)c2)C1` [Example 119, (S)-(1-methylpyrrolidin-3-yl)methyl(3′,5′-dichloro-[1,1′-biphenyl]-2-yl)carbamate]: the inhibition constant (Ki) is 42.3 nM.

As to `Cc1cc(C)cc(-c2cc(F)ccc2NC(=O)OC[C@H]2CCN(C)C2)c1` [Example 122, (S)-(1-methylpyrrolidin-3-yl)methyl(5-fluoro-3′,5′-dimethyl-[1,1′-biphenyl]-2-yl)carbamate], the inhibition constant Ki worked out at 87.8 nM.

As for `CN1CC[C@H](COC(=O)Nc2ccc(F)cc2-c2cc(O)cc(Cl)c2)C1` [Example 123, (S)-(1-methylpyrrolidin-3-yl)methyl(3′-chloro-5-fluoro-5′-hydroxy-[1,1′-biphenyl]-2-yl)carbamate], the Ki was 52.8 nM.

With `CN1CC[C@H](COC(=O)Nc2ccc(F)cc2-c2ccc(Cl)cc2)C1` [Example 127, (S)-(1-methylpyrrolidin-3-yl)methyl(4′-chloro-5-fluoro-[1,1′-biphenyl]-2-yl)carbamate], the Ki is 69.4 nM.

As for `CN1CC[C@@H](COC(=O)Nc2ccc(F)cc2-c2cccc(N)c2)C1` [Example 133, (R)-(1-methylpyrrolidin-3-yl)methyl(5-fluoro-3′-amino-[1,1′-biphenyl]-2-yl)carbamate], the inhibition constant Ki was determined as 34.5 nM.

As to `CN1CC[C@@H](COC(=O)Nc2ccc(F)cc2-c2cc(O)cc(Cl)c2)C1` [Example 134, (R)-(1-methylpyrrolidin-3-yl)methyl(3′-chloro-5-fluoro-5′-hydroxy-[1,1′-biphenyl]-2-yl)carbamate], the Ki was found to be 46.9 nM.

Take `CN1CC[C@@H](COC(=O)Nc2ccccc2-c2cccc(O)c2)C1` [Example 137, (R)-(1-methylpyrrolidin-3-yl)methyl(3′-hydroxy-[1,1′-biphenyl]-2-yl)carbamate]: the inhibition constant Ki is 27 nM.
